Counter-ions that a name gives are not always drawn. Like-named read-outs stand apart in the source and are kept apart here.

One data set deals with T1, acetylcholinesterase (Rattus norvegicus, UniProt P37136).
T1 construct: corpora striata dissected free, weighted and homogenized in 19 volumes (approximately 7 mg protein/ml) of 0.05M Phosphate Buffer; from tissue; host or cells: rat brain corpora striata, crude homogenate
T1 sequence (P37136 32-614): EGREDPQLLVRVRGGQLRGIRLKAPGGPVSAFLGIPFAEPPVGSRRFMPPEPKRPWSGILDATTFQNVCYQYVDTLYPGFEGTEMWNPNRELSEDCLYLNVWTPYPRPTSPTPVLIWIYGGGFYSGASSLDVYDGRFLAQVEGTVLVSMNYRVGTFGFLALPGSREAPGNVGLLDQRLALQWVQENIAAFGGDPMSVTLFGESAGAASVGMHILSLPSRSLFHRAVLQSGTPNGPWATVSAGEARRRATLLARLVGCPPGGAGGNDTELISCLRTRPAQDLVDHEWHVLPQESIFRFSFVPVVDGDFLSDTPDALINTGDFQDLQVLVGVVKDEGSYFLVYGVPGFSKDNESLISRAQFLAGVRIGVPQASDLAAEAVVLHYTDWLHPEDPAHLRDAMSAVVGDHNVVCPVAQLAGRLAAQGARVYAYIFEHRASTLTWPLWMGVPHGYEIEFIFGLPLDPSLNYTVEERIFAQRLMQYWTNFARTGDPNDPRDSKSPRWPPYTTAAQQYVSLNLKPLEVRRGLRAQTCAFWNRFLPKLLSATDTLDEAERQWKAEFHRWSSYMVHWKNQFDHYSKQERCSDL
The experiment in a line: biochemical. To be noted: read-out: Inhibition of Acetylcholinesterase Activity IC50. The method, then:
1. 0.05M Phosphate Buffer (pH 7.2)
A solution of monobasic sodium phosphate monohydrate (6.85 g) in distilled water (100 ml) is added to a solution of dibasic sodium phosphate heptahydrate (13.4 g) and distilled water (100 ml) until a pH of 7.2 was attained. The solution was diluted 1 to 10 with distilled water.
3. 5,5-Dithiobisnitrobenzoic acid in Buffer
The 0.05M Phosphate Buffer (pH 7.2) was added to 5.5-dithiobisnitrobenzoic acid to a total volume of 100 ml, i.e., a quantity sufficient (gs) to 100 ml.
4. Stock Solution of Drug
A 2 millimolar stock solution of the test drug is prepared in a quantity sufficient of either acetic acid or dimethyl sulfoxide to volume with 5,5-dithiobisnitrobenzoic acid in Buffer. Stock Solution of Drug is serially diluted (1:10) so that the final cuvette concentration is 10^−4 molar.
Male Wistar rats are decapitated, brains rapidly removed, corpora striata dissected free, weighted and homogenized in 19 volumes (approximately 7 mg protein/ml) of 0.05M Phosphate Buffer (pH 7.2) using a Potter-Elvejhem homogenizer. A 25 μl aliquot of this suspension is added to 1 ml of the vehicle or various concentrations of the test drug and preincubated for 10 minutes at 37° C. Enzyme activity is measured with a Beckman DU-50 spectrophotometer with the following software and instrument settings:
Reagents are added to the blank and sample cuvettes as follows:
Blank values are determined for each run to control for non-enzymatic hydrolysis of substrate and these values are automatically subtracted by the Kindata program available on kinetics soft-pac module. This program also calculates the rate of absorbance change for each cuvette.
Substrate concentration is 10 millimolar diluted 1:2 in assay yielding final concentration of 5 millimolar. 5,5-dithiobisnitrobenzoicacid concentration is 0.5 millimolar yielding 0.25 millimolar final concentration. [formula]
IC50 values are calculated from log-probit analysis

Where [1] appears, read: Male Wistar rat corpora striata homogenate, preincubated 10 minutes at 37° C., acetylthiocholine substrate 5 millimolar final, log-probit analysis.

`CNC(=O)Oc1ccc(CN2CCc3cc(OC)c(OC)cc3C2)cc1OC` (as salt: hydrochloride) [Example 42, 2-[3-Methoxy-4-(methylaminocarbonyloxy)phenylmethyl]-1-(6,7-dimethoxy)-1,2,3,4-tetrahydroisoquinoline Hydrochloride]: the melting point was 205 to 208 °C (dec.).
Still for that read-out and setting: under `COc1cc(CN2CCN(c3ccccc3F)CC2)ccc1OC(=O)N(C)C` stands 130 to 133 °C; under `COc1cc(CN2CCN(c3ccccn3)CC2)ccc1OC(=O)N(C)C` [Example 40], 140 to 145 °C.
For `CC(c1ccc(OC(=O)N(C)C)c(F)c1)N1CCN(c2ccccn2)CC1` (stereo not shown) [Example 74, 1-[1-(4-N,N-Dimethylcarbamoyloxy-3-fuorophenyl)ethyl]-4-pyridin-2-yl-piperazine], the IC50 at acetylcholinesterase turned out to be 14000 nM.
Regarding `COC1(OCCO)CCN(Cc2ccccc2)C1` (stereo not shown), the melting point is 55 to 57 °C.
On to “4-(Methylaminocarbonyloxy)-3-(propargyloxy)1-(pyrrolidinomethyl)benzene Citrate [Example 17]”, for which the IC50 at acetylcholinesterase (setting [1]) was found to be 3.6 nM.
In the case of `CCOC(=O)COc1cc(C=O)ccc1OCc1ccccc1`, the melting point is 36 to 43 °C.
In the case of `COc1cc(C(C)N2CCN(c3ccccn3)CC2)ccc1OC(=O)N(C)C` (stereo not shown) [Example 78, 1-[1-(4-N,N-Dimethylcarbamoyloxy-3-methoxyphenyl)ethyl]-4-pyridin-2-yl-piperazine Dihydrochloride], the concentration for half-maximal inhibition (IC50) at acetylcholinesterase (setting [1]) worked out at 358 nM.
In the case of `CNC(=O)Oc1ccc(CN2CCN(c3ccccn3)CC2)cc1OC` [Example 35, 4-[[3-Methoxy-4-(methylaminocarbonyloxy)]phenylmethyl]-1-(pyridin-2-yl)piperazine Hydrochloride Monohydrate], the concentration for half-maximal inhibition (IC50) on acetylcholinesterase (setting [1]) amounted to 536 nM.
The molecule `C#CCOc1cc(C=O)ccc1OS(C)(=O)=O` yielded a melting point of 81 to 83 °C.
Consider `CNC(=O)Oc1ccc(CN2CCN(c3ccc([N+](=O)[O-])cc3)CC2)cc1OC`, for which the melting point is 155 to 157 °C.
Still for that read-out and setting: for `COc1cc(CN2CCN(c3ccccc3Cl)CC2)ccc1OC(=O)N(C)C.Cl` the value was 190 to 193 °C.
For `C#CCOc1cc(CN2CCc3cc(OC)c(OC)cc3C2)ccc1OC` (as salt: hydrochloride) [Example 36, 6,7-Dimethoxy-N-[(4-methoxy)-3-(propargyloxy)phenylmethyl]-1,2,3,4-tetrahydroisoquinoline Hydrochloride], the melting point was 220 to 222 °C (dec.).
In the case of `COc1cc(CN2CCN(c3ccccn3)CC2)c(Br)cc1OC(=O)N(C)C` [Example 67, N-(2-Bromo-4-[dimethylcarbamoyloxy]-5-methoxy)benzyl-N′-(pyridin-2-yl)-piperazine], the IC50 at acetylcholinesterase (setting [1]) is 18 nM.
Still for that read-out and setting: under `CNC(=O)Oc1cc(CN2CCN(c3ccccn3)CC2)ccc1OC` [Example 38, 4-[[4-Methoxy-3-(methylaminocarbonyloxy)]phenylmethyl]-1-(pyridin-2-yl)piperazine Dihydrochloride] stands 2390 nM.
As for `COc1cc(CN2CCN(c3ccccc3OC)CC2)ccc1OC(=O)N(C)C` (as salt: hydrochloride) [Example 49, 1-[[4-(Dimethylaminocarbonyloxy)-3-(methoxy)phenyl]methyl]-4-(2-methoxyphenyl)piperazine Dihydrochloride], the melting point lay in the range of 196 to 206 °C.
